In US20040213751A1, “Augmentation of pyrithione activity or a polyvalent metal salt of pyrithione activity by zinc-containing layered material” (priority 2003, published 2004):

Test system: Malassezia furfur (ATCC 14521)
Experiment: Minimum inhibitory concentration (MIC) of ZPT in mDixon agar, with and without augmenting material
Assay type: cell-based
Text: In some cases, materials can augment the activity of antifungal actives. As used herein, the term augmentation is intended to mean enhancement of the antifungal activity of a ZPT-containing composition by the augmenting material to an extent sufficient to permit the use of a lower amount of ZPT without reducing the antifungal inhibition provided by the composition, as compared to the antifungal inhibition that is provided by an otherwise-identical ZPT-containing composition that is free of the augmenting material. Augmenting agents are generally specific to the material being augmented, forming a unique combination and often because there is a specific chemical or biological mechanism required to achieve the augmentation effect. ^1 The Minimum Inhibitory Concentration is indicative of anti-fungal efficacy. Generally, the lower the value of the composition, the better its anti-fungal efficacy, due to increased inherent ability of the anti-dandruff agent to inhibit the growth of microorganisms.
An “augmentation factor” is defined, which is the ratio of the MIC with and without an augmenting agent (at a specified concentration): [formula]
Dilutions of solubilized anti-microbial active were then added to test tubes containing molten mDixon agar. M. furfur inoculum was added to each tube of molten agar, the tube vortexed, and the contents poured into separate sterile petri dishes. […] The lowest tested dilution of anti-microbial active that yields no growth is defined as the Minimal Inhibitory Concentration (MIC).
1) Malassezia furfur was grown in a 250 ml Erlenmeyer flask containing 100 mil “mDIXON” medium at 320 rpm and 30° C. until turbid.
2) Selected dilutions were prepared using an appropriate dilution series, of the anti-microbial active or combination in solvent, which allowed the sample active to be solubilized prior to addition to the final test agar. For each concentration of the ZPT samples, the solvent was “DMSO”; for other samples, the solvent was water or “DMSO” or other suitable solvent.
3) 0.25 ml dilutions of anti-microbial active were added to test tubes containing 9.5 ml molten “mDIXON” agar (held at 45° C. in a water bath).
4) 0.25 M. furfur inoculum (adjusted to 5×10^5 cfu/ml by direct count) was added to each test tube of molten agar.
5) Each tube was vortexed, and the contents poured into separate petri dishes.
6) After the agar solidified, the plates inverted and incubated at 30° for 5 days.
7) The plates were then observed for visible M. furfur growth.

MIC of ZPT alone (Malassezia furfur, mDixon agar, 30° for 5 days, no augmenting material) | Compound | Augmentation Benefit (5 ppm augmenting material, effective agent has augmentation factor greater than 1) | MIC of ZPT with 5 ppm augmenting material (Malassezia furfur, mDixon agar, 30° for 5 days, 5 ppm of the named augmenting material) | Augmentation Factor (ratio of the MIC of ZPT without and with 5 ppm augmenting material)
 | Zinc Stearate | No | 8 ppm | 1.0
8 ppm | [O-]n1ccccc1=S.[O-]n1ccccc1=S.[Zn+2] [ZPT, zinc salt of 1-hydroxy-2-pyridinethione] |  |  | 
